Experimental data as given in US11434222B2, “MAGL inhibitors” (H. LUNDBECK A/S, priority 2020, dated 2022).
Like-named read-outs stand apart in the source and are kept apart here.

Tests used:
[1] = Kinetic solubility in PBS; type: physicochemical; conditions: aqueous buffer, kinetic from dmso stock
Experimental: The kinetic solubility of test articles was determined in PBS at pH 2.0 and pH 7.4 in duplicate. A stock solution of test compound in DMSO (10 mM) was incubated at RT for 2 hours with shaking at 1,100 RPM. The sample was then filtered using a vacuum manifold, diluted, and analyzed by LC-MS/MS. Chromatographic conditions: Phenomenex Synergi 4μ Hydro-PR 80A column (2.0×30 mm) coupled with pre-guard column; mobile phase=0.1% formic acid in acetonitrile and 0.1% formic acid in water; flowrate=0.65 mL/min; column temperature=40° C.; injection volume: 3 μL.
Mass conditions: Turbo spray ion source; ESI ionization model; MRM scan type; Collison gas=6 L/min; Curtain gas=30 L/min; Nebulize gas=50 L/min; Auxiliary gas=50 L/min; Temperature=500 degrees C.; Ion spray voltage=+5500 v (positive MRM).
The filtered solution was analyzed and quantified against a standard of known concentration in DMSO using UPLC coupled with mass spectral peak identification and quantitation. Solubility values of the test articles were calculated using Microsoft Excel as follows (DF is the dilution factor): […]

MAGL = target: T1, MAGL (Homo sapiens, UniProt Q99685); assay: In vitro competitive activity-based protein profiling (PC3 human cell membrane proteomes); type: biochemical
T1 construct: PC3 human cell membrane proteomes; endogenous in cells; host or cells: PC3 human cells (membrane proteome)
T1 sequence (Q99685 1-303): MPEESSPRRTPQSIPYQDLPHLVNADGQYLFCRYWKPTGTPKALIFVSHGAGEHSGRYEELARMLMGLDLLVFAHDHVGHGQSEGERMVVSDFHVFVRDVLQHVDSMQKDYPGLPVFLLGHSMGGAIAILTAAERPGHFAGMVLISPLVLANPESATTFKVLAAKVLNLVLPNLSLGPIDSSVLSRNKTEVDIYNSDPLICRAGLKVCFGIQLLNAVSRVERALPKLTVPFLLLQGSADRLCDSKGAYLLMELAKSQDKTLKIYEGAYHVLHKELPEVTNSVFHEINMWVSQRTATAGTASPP
Experimental: PC3 human cell membrane proteomes (50 µL, 2.0 mg/mL total protein concentration) were preincubated with varying concentrations of inhibitors at 37° C. After 30 min, the ABPP probe JW912-Bodipy (1.0 µL, 50 µM in DMSO) was added and the mixture was incubated for 30 min at room temperature. Reactions were quenched with SDS loading buffer (15 μL-4×) and run on SDS-PAGE. Following gel imaging, serine hydrolase activity was determined by measuring fluorescent intensity of gel bands corresponding to MAGL using ImageJ 1.43u software. Intensities were converted to percent enzyme activity by normalizing to DMSO controls. IC50 values were determined by fitting percent enzyme activities to a non-linear regression, 4-parameter, sigmoidal dose response function in Prism GraphPad.

[2] = PBS pH 7.4, RT, read-out: pH 7.4 Solubility (kinetic)

Row | SMILES | MAGL % inh. 1 µM (human PC3) (MAGL) [%] | further results
1 | O=C(Nc1ccnc(C(F)(F)F)n1)[C@H]1CC12CCN(C(=O)OC(C(F)(F)F)C(F)(F)F)CC2 (single isomer, unassigned) [Example 17] |  | solubility kinetic at 2 h [1, 2]: 0.07 µM
2 | CN(C(=O)C1CC12CCN(C(=O)OC(C(F)(F)F)C(F)(F)F)CC2)c1ccccn1 (single isomer, unassigned) [Example 46, 1,1,1,3,3,3-hexafluoropropan-2-yl (R or S)-1-(methyl(pyridin-2-yl)carbamoyl)-6-azaspiro[2.5]octane-6-carboxylate] | 100 | 
3 | O=C(Nc1ccccn1)C1CC12CCN(C(=O)OC(C(F)(F)F)C(F)(F)F)CC2 (single isomer, unassigned) [Example 49, 1,1,1,3,3,3-hexafluoropropan-2-yl (R or S)-1-(pyridin-2-ylcarbamoyl)-6-azaspiro[2.5]octane-6-carboxylate] | 100 | 
4 | O=C(OC(C(F)(F)F)C(F)(F)F)N1CCC2(CC1)CC2C(=O)N1CCn2cc(C(F)(F)F)nc2C1 (single isomer, unassigned) [Example 52, 1,1,1,3,3,3-hexafluoropropan-2-yl (R or S)-1-(2-(trifluoromethyl)-5,6,7,8-tetrahydroimidazo[1,2-a]pyrazine-7-carbonyl)-6-azaspiro[2.5]octane-6-carboxylate] | 100 | 
5 | O=C(Nc1cnccn1)C1CC12CCN(C(=O)OC(C(F)(F)F)C(F)(F)F)CC2 (single isomer, unassigned) [Example 55, 1,1,1,3,3,3-hexafluoropropan-2-yl (R or S)-1-(pyrazin-2-ylcarbamoyl)-6-azaspiro[2.5]octane-6-carboxylate] | 100 | 
6 | O=C(OC(C(F)(F)F)C(F)(F)F)N1CCC2(CC1)CC2C(=O)N1CCc2cnc(C(F)(F)F)nc2C1 (single isomer, unassigned) [Example 58, 1,1,1,3,3,3-hexafluoropropan-2-yl (R or S)-1-(2-(trifluoromethyl)-5,6,7,8-tetrahydropyrido[3,4-d]pyrimidine-7-carbonyl)-6-azaspiro[2.5]octane-6-carboxylate] | 100 | 
7 | O=C(OC(C(F)(F)F)C(F)(F)F)N1CCC2(CC1)CC2C(=O)N1CCc2ncncc2C1 (single isomer, unassigned) [Example 61, 1,1,1,3,3,3-hexafluoropropan-2-yl (R or S)-1-(5,6,7,8-tetrahydropyrido[4,3-d]pyrimidine-6-carbonyl)-6-azaspiro[2.5]octane-6-carboxylate] | 75 | 
8 | O=C(OC(C(F)(F)F)C(F)(F)F)N1CCC2(CC1)CC2C(=O)N1CCc2nc(C3CC3)ncc2C1 (single isomer, unassigned) [Example 64, 1,1,1,3,3,3-hexafluoropropan-2-yl (R or S)-1-(2-cyclopropyl-5,6,7,8-tetrahydropyrido[4,3-d]pyrimidine-6-carbonyl)-6-azaspiro[2.5]octane-6-carboxylate] | 100 | 
9 | O=C(Nc1cncc(Cl)c1)C1CC12CCN(C(=O)OC(C(F)(F)F)C(F)(F)F)CC2 (single isomer, unassigned) [Example 66, 1,1,1,3,3,3-hexafluoropropan-2-yl (R or S)-1-((5-chloropyridin-3-yl)carbamoyl)-6-azaspiro[2.5]octane-6-carboxylate] |  | solubility kinetic at 2 h [1, 2]: 8.74 µM
10 | O=C(Nc1cncc(Cl)c1)C1CC12CCN(C(=O)OC(C(F)(F)F)C(F)(F)F)CC2 (single isomer, unassigned) [Example 67, 1,1,1,3,3,3-hexafluoropropan-2-yl (R or S)-1-((5-chloropyridin-3-yl)carbamoyl)-6-azaspiro[2.5]octane-6-carboxylate] | 100 | 
11 | Cc1ncccc1NC(=O)C1CC12CCN(C(=O)OC(C(F)(F)F)C(F)(F)F)CC2 (single isomer, unassigned) [Example 69, 1,1,1,3,3,3-hexafluoropropan-2-yl (R or S)-1-((2-methylpyridin-3-yl)carbamoyl)-6-azaspiro[2.5]octane-6-carboxylate] | 100 | 
12 | Cc1ncccc1NC(=O)C1CC12CCN(C(=O)OC(C(F)(F)F)C(F)(F)F)CC2 (single isomer, unassigned) [Example 70, 1,1,1,3,3,3-hexafluoropropan-2-yl (R or S)-1-((2-methylpyridin-3-yl)carbamoyl)-6-azaspiro[2.5]octane-6-carboxylate] | 75 | 
13 | O=C(Nc1cccc(C(F)(F)F)n1)C1CC12CCN(C(=O)OC(C(F)(F)F)C(F)(F)F)CC2 (single isomer, unassigned) [Example 73, 1,1,1,3,3,3-hexafluoropropan-2-yl (R or S)-1-((6-(trifluoromethyl)pyridin-2-yl)carbamoyl)-6-azaspiro[2.5]octane-6-carboxylate] | 100 | 
14 | O=C(Nc1ccc(C(F)(F)F)nc1)C1CC12CCN(C(=O)OC(C(F)(F)F)C(F)(F)F)CC2 (single isomer, unassigned) [Example 79, 1,1,1,3,3,3-hexafluoropropan-2-yl (R or S)-1-((6-(trifluoromethyl)pyridin-3-yl)carbamoyl)-6-azaspiro[2.5]octane-6-carboxylate] | 50 | 
15 | Cc1ccc(NC(=O)C2CC23CCN(C(=O)OC(C(F)(F)F)C(F)(F)F)CC3)cn1 (single isomer, unassigned) [Example 82, 1,1,1,3,3,3-hexafluoropropan-2-yl (R or S)-1-((6-methylpyridin-3-yl)carbamoyl)-6-azaspiro[2.5]octane-6-carboxylate] | 100 | 
16 | O=C(Nc1cccnc1C(F)(F)F)C1CC12CCN(C(=O)OC(C(F)(F)F)C(F)(F)F)CC2 (single isomer, unassigned) [Example 85, 1,1,1,3,3,3-hexafluoropropan-2-yl (R or S)-1-((2-(trifluoromethyl)pyridin-3-yl)carbamoyl)-6-azaspiro[2.5]octane-6-carboxylate] | 100 | 
17 | O=C(NCc1cccnc1)C1CC12CCN(C(=O)OC(C(F)(F)F)C(F)(F)F)CC2 (single isomer, unassigned) [Example 88, 1,1,1,3,3,3-hexafluoropropan-2-yl (R or S)-1-((pyridin-3-ylmethyl)carbamoyl)-6-azaspiro[2.5]octane-6-carboxylate] | 100 | 
18 | O=C(NC(=O)C1CC12CCN(C(=O)OC(C(F)(F)F)C(F)(F)F)CC2)C1CCCCC1 (single isomer, unassigned) [Example 90, 1,1,1,3,3,3-hexafluoropropan-2-yl (R or S)-1-((cyclohexanecarbonyl)carbamoyl)-6-azaspiro[2.5]octane-6-carboxylate] |  | solubility kinetic at 2 h ([1]; PBS pH 2.0, RT, read-out: pH 2 Solubility (kinetic)): 33 µM
19 | O=C(NC(=O)C1CC12CCN(C(=O)OC(C(F)(F)F)C(F)(F)F)CC2)C1CCCCC1 (single isomer, unassigned) [Example 91, 1,1,1,3,3,3-hexafluoropropan-2-yl (R or S)-1-((cyclohexanecarbonyl)carbamoyl)-6-azaspiro[2.5]octane-6-carboxylate] | 100 | 
20 | O=C(NC(=O)C1CC12CCN(C(=O)OC(C(F)(F)F)C(F)(F)F)CC2)c1ccccc1 (single isomer, unassigned) [Example 94, 1,1,1,3,3,3-hexafluoropropan-2-yl (R or S)-1-(benzoylcarbamoyl)-6-azaspiro[2.5]octane-6-carboxylate] | 100 | 
21 | O=C(Nc1cncnc1)C1CC12CCN(C(=O)OC(C(F)(F)F)C(F)(F)F)CC2 (single isomer, unassigned) [Example 97, 1,1,1,3,3,3-hexafluoropropan-2-yl (R or S)-1-(pyrimidin-5-ylcarbamoyl)-6-azaspiro[2.5]octane-6-carboxylate] | 90 | 
22 | O=C(Nc1cnc(C(F)(F)F)nc1)C1CC12CCN(C(=O)OC(C(F)(F)F)C(F)(F)F)CC2 (single isomer, unassigned) [Example 100, 1,1,1,3,3,3-hexafluoropropan-2-yl (R or S)-1-((2-(trifluoromethyl)pyrimidin-5-yl)carbamoyl)-6-azaspiro[2.5]octane-6-carboxylate] | 75 | 
